Reference: BindingDB's records for patent US20250313563 (The Broad Institute, 2025)
Values joined by “and” are separate entries in the source; they are usually repeats but may differ in a detail not shown here. Equal entries are not always repeated.

Assays:
[1] = molecular target: Glycogen synthase kinase-3 alpha (Homo sapiens, UniProt P49840); assay: TR-FRET Assay
Procedure, shortened: (§1)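 TR-FRET readout: streptavidin-d2 (40 nM in added detection mix) plus Tb-anti-pSer641 Ab (2 nM in mix). Steps were 30 min compound preincubation, kinase reaction, then EDTA stop.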

[2] = molecular target: Glycogen synthase kinase-3 beta (Homo sapiens, UniProt P49841); assay: TR-FRET Assay
Chain of Glycogen synthase kinase-3 beta (P49841 whole entry): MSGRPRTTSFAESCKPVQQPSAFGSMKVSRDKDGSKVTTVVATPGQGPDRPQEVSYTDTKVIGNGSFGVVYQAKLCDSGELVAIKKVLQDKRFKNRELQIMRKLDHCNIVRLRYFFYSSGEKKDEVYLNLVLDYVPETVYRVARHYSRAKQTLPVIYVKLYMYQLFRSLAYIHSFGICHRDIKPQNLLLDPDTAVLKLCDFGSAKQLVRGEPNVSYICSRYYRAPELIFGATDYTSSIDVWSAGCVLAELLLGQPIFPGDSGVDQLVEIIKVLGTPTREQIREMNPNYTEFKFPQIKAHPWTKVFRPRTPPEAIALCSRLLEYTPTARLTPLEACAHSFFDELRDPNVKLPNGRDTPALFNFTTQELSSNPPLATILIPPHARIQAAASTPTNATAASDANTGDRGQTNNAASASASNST
Procedure, shortened: as §1

Chain of Glycogen synthase kinase-3 alpha (P49840 whole entry): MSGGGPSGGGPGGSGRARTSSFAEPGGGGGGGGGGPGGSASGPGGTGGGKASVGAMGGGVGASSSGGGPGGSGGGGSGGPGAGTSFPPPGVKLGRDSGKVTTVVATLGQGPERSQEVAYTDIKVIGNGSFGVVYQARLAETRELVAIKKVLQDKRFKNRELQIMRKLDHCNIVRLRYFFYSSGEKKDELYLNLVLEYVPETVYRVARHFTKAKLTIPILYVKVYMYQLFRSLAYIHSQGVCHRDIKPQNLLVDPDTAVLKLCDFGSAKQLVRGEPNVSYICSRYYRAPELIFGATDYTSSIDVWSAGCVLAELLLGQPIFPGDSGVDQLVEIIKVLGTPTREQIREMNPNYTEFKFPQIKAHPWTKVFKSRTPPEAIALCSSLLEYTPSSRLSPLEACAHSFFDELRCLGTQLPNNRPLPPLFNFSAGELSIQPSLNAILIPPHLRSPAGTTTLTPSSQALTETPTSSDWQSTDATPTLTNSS

Row | SMILES | IC50 [1] | IC50 [2]
1 | CCC1(c2cccc(-c3ccncc3CO)c2)C2=CN=NC2NC2=C1C(=O)CC(C)(C)C2 (centres undefined) [US20250313563, Compound 943539] | < 100 nM | < 100 nM
2 | CCC1(c2cccc(-c3ccnc(CO)c3)c2)C2=CN=NC2NC2=C1C(=O)CC(C)(C)C2 (centres undefined) [US20250313563, Compound 943540] | < 100 nM | 100 to 1000 nM
3 | CC[C@@]1(c2cccc(S(=O)(=O)C3CCCCC3)c2)C2=CN=NC2NC2=C1C(=O)CC(C)(C)C2 (some centres undefined) [US20250313563, Compound 943541] | 100 to 1000 nM | 1000 to 5000 nM
4 | CC[C@]1(c2cccc(S(=O)(=O)CCOC)c2)C2=CN=NC2NC2=C1C(=O)CC(C)(C)C2 (some centres undefined) [US20250313563, Compound 943542] | < 100 nM and 100 to 1000 nM | < 100 nM and 1000 to 5000 nM
5 | CC1(C)CC(=O)C2=C(C1)NC1=C(CN=N1)C21CN(S(=O)(=O)Cc2ccccc2)C1 [US20250313563, Compound 943543] | < 100 nM | < 100 nM
6 | COCCN1CC2(C1)C1=C(N=NC1)NC1=C2C(=O)CC(C)(C)C1 [US20250313563, Compound 943544] | > 5000 nM | > 5000 nM
7 | CC1(C)CC(=O)C2=C(C1)NC1=C(CN=N1)C21CN(CC2CCOCC2)C1 [US20250313563, Compound 943545] | > 5000 nM | > 5000 nM
8 | CC[C@@]1(c2cccc(S(=O)(=O)CCOC)c2)C2=CN=NC2NC2=C1C(=O)CC(C)(C)C2 (some centres undefined) [US20250313563, Compound 943546] | 1000 to 5000 nM | > 5000 nM
9 | CC1(C)CC(=O)C2=C(C1)NC1=C(CN=N1)C21CCC(n2cnnc2)CC1 (centres undefined) [US20250313563, Compound 943894] | < 100 nM | 100 to 1000 nM
10 | Cc1noc(C2CCC3(CC2)C2=C(N=NC2)NC2=C3C(=O)CC(C)(C)C2)n1 (centres undefined) [US20250313563, Compound 943895] | 100 to 1000 nM | 100 to 1000 nM
11 | C[C@H]1C[C@@H]2C[C@@]3(C[C@@H]2C1)C1=CN=NC1NC1=C3C(=O)CC(C)(C)C1 (some centres undefined) [US20250313563, Compound 943896] | < 100 nM | < 100 nM
12 | C[C@@H]1C[C@@H]2C[C@@]3(C[C@@H]2C1)C1=CN=NC1NC1=C3C(=O)CC(C)(C)C1 (some centres undefined) [US20250313563, Compound 943898] | < 100 nM | < 100 nM
13 | CCC1(c2cccc(-c3cnn(C)c3)c2)C2=CN=NC2NC2=C1C(=O)NC(C)(C)C2 (centres undefined) [US20250313563, Compound 943912] | < 100 nM | 1000 to 5000 nM
14 | CC1(C)CC(=O)C2=C(C1)NC1=C(CN=N1)C21CN(CC2CCCC2)C1 [US20250313563, Compound 943914] | > 5000 nM | > 5000 nM
15 | CC[C@]1(c2cccc(-c3ccnc(C(F)F)c3)c2)C2=CN=NC2NC2=C1C(=O)CC(C)(C)C2 (some centres undefined) [US20250313563, Compound 943915] | > 5000 nM | > 5000 nM
16 | CC[C@@]1(c2cccc(-c3ccnc(C)c3)c2)C2=C(N=NC2)NC2=C1C(=O)[C@H]1CC[C@@H]2C1 [US20250313563, Compound 943916] | < 100 nM | 100 to 1000 nM
17 | CC[C@]1(c2cccc(-c3ccnc(C)c3)c2)C2=C(N=NC2)NC2=C1C(=O)[C@H]1CC[C@@H]2C1 [US20250313563, Compound 943917] | < 100 nM | 100 to 1000 nM
18 | CC[C@]1(c2cccc(-c3ccncc3C(F)(F)F)c2)C2=CN=NC2NC2=C1C(=O)CC(C)(C)C2 (some centres undefined) [US20250313563, Compound 943918] | 100 to 1000 nM | 1000 to 5000 nM
19 | CC[C@@]1(c2cccc(-c3ccnc(C(F)F)c3)c2)C2=CN=NC2NC2=C1C(=O)CC(C)(C)C2 (some centres undefined) [US20250313563, Compound 943919] | < 100 nM | 100 to 1000 nM
20 | CC[C@@]1(c2cccc(-c3ccnc(C)c3)c2)C2=C(N=NC2)NC2=C1C[C@@H]1CC[C@H]2C1 [US20250313563, Compound 943920] | 1000 to 5000 nM | > 5000 nM
21 | CC[C@]1(c2cccc(-c3ccnc(C)c3)c2)C2=CN=NC2NC2=C1C(=O)[C@@H]1CC[C@H]2C1 (some centres undefined) [US20250313563, Compound 943921] | 1000 to 5000 nM | > 5000 nM
22 | CC1(C)CC(=O)C2=C(C1)NC1=C(CN=N1)[C@@]21COC2(CN(C(=O)c3ccccc3)C2)C1 [US20250313563, Compound 943955] | < 100 nM | < 100 nM
23 | CC1(C)CC(=O)C2=C(C1)NC1=C(CN=N1)[C@]21COC2(CN(C(=O)c3ccccc3)C2)C1 [US20250313563, Compound 943956] | 100 to 1000 nM | 1000 to 5000 nM
24 | CC1(C)CC(=O)C2=C(C1)NC1=C(CN=N1)[C@@]21COC2(CN(C(=O)C3CCCC3)C2)C1 [US20250313563, Compound 943957] | < 100 nM | < 100 nM
25 | CC1(C)CC(=O)C2=C(C1)NC1=C(CN=N1)[C@]21COC2(CN(C(=O)C3CCCC3)C2)C1 [US20250313563, Compound 943958] | 100 to 1000 nM | 1000 to 5000 nM
26 | CC1(C)CC2=C(C(=O)N1)C1(CCN(S(C)(=O)=O)CC1)C1=C(N=NC1)N2 [US20250313563, Compound 943959] | < 100 nM | 100 to 1000 nM

Row | SMILES | IC50 [1] | IC50 [2]
27 | CC1(C)CC2=C(C(=O)N1)C1(CCN(S(=O)(=O)C3CCCC3)CC1)C1=C(N=NC1)N2 [US20250313563, Compound 943960] | < 100 nM and 100 to 1000 nM | < 100 nM and 100 to 1000 nM
28 | CC1(C)CC2=C(C(=O)N1)C1(CCN(S(=O)(=O)c3ccc(F)cc3)CC1)C1=C(N=NC1)N2 [US20250313563, Compound 943963] | < 100 nM | < 100 nM
29 | CC[C@]1(c2cccc(N(C)c3ncccn3)c2)C2=CN=NC2NC2=C1C(=O)NC(C)(C)C2 (some centres undefined) [US20250313563, Compound 943964] | < 100 nM and 100 to 1000 nM | < 100 nM and 1000 to 5000 nM
30 | CC[C@@]1(c2cccc(N(C)c3ncccn3)c2)C2=CN=NC2NC2=C1C(=O)NC(C)(C)C2 (some centres undefined) [US20250313563, Compound 943965] | 100 to 1000 nM | > 5000 nM
31 | CC[C@@]1(c2cccc(-c3cc(C)nn3C)c2)C2=CN=NC2NC2=C1C(=O)NC(C)(C)C2 (some centres undefined) [US20250313563, Compound 943967] | > 5000 nM | > 5000 nM
32 | CC[C@]1(c2cccc(-c3ccnc(OC(F)(F)F)c3)c2)C2=CN=NC2NC2=C1C(=O)CC(C)(C)C2 (some centres undefined) [US20250313563, Compound 943988] | 100 to 1000 nM | 1000 to 5000 nM
33 | CC[C@@]1(c2cccc(-c3ccnc(C(F)(F)F)c3)c2)C2=CN=NC2NC2=C1C(=O)CC(C)(C)C2 (some centres undefined) [US20250313563, Compound 943989] | > 5000 nM | > 5000 nM
34 | CC[C@@]1(c2cccc(-c3ccncc3C)c2)C2=CN=NC2NC2=C1C(=O)CC(C)(C)C2 (some centres undefined) [US20250313563, Compound 943991] | 100 to 1000 nM | 1000 to 5000 nM
35 | CC[C@@]1(c2cccc(-c3ccnc(O)c3)c2)C2=CN=NC2NC2=C1C(=O)CC(C)(C)C2 (some centres undefined) [US20250313563, Compound 943993] | > 5000 nM | > 5000 nM
36 | CC[C@@]1(c2cccc(-c3cnnc(C)c3)c2)C2=CN=NC2NC2=C1C(=O)CC(C)(C)C2 (some centres undefined) [US20250313563, Compound 943994] | 100 to 1000 nM | 1000 to 5000 nM
37 | CC[C@@]1(c2cccc(-c3cnnc(C)c3)c2)C2=CN=NC2NC2=C1C(=O)CC(C)(C)C2 (some centres undefined) [US20250313563, Compound 943995] | 100 to 1000 nM | > 5000 nM
38 | CCC1(c2cccc(-c3c(C)nnn3C)c2)C2=CN=NC2NC2=C1C(=O)CC(C)(C)C2 (centres undefined) [US20250313563, Compound 943996] | < 100 nM | < 100 nM and 100 to 1000 nM
39 | CCC1(c2cccc(S(=O)(=O)C3COC3)c2)C2=CN=NC2NC2=C1C(=O)CC(C)(C)C2 (centres undefined) [US20250313563, Compound 944017] | < 100 nM | < 100 nM
40 | CCC1(c2cccc(S(=O)(=O)C3CCOC3)c2)C2=CN=NC2NC2=C1C(=O)CC(C)(C)C2 (centres undefined) [US20250313563, Compound 944018] | < 100 nM | < 100 nM
41 | CCC1(c2cccc(S(=O)(=O)C3CC(F)(F)C3)c2)C2=CN=NC2NC2=C1C(=O)CC(C)(C)C2 (centres undefined) [US20250313563, Compound 944019] | < 100 nM | < 100 nM
42 | CCC1(c2cccc(S(C)(=O)=O)c2)C2=CN=NC2NC2=C1C(=O)NC(C)(C)C2 (centres undefined) [US20250313563, Compound 944020] | < 100 nM | < 100 nM
43 | CCC1(c2cccc(-c3cnn(C)c3C)c2)C2=CN=NC2NC2=C1C(=O)NC(C)(C)C2 (centres undefined) [US20250313563, Compound 944021] | < 100 nM | 100 to 1000 nM
44 | CCC1(c2cccc(C3=CN=NC3)c2)C2=CN=NC2NC2=C1C(=O)NC(C)(C)C2 (centres undefined) [US20250313563, Compound 944022] | < 100 nM | 100 to 1000 nM
45 | CCc1cccc(N(C)c2cccc(C3(CC)C4=CN=NC4NC4=C3C(=O)CC(C)(C)C4)c2)n1 (centres undefined) [US20250313563, Compound 944023] | < 100 nM | 100 to 1000 nM
46 | CCC1(c2cccc(-c3ccncc3O)c2)C2=C(CC(C)(C)CC2=O)NC2N=NC(C)=C21 (centres undefined) [US20250313563, Compound 944024] | < 100 nM | < 100 nM
47 | CCC1(c2cccc(-c3cnco3)c2)C2=CN=NC2NC2=C1C(=O)CC(C)(C)C2 (centres undefined) [US20250313563, Compound 944025] | < 100 nM | 100 to 1000 nM
48 | CCC1(c2cccc(-c3cncn3C(C)C)c2)C2=CN=NC2NC2=C1C(=O)CC(C)(C)C2 (centres undefined) [US20250313563, Compound 944026] | < 100 nM | < 100 nM
49 | CCC1(c2cccc(-c3cnn(C)c3)c2)C2=C(CC(C)(C)NC2=O)NC2N=NC(C)=C21 (centres undefined) [US20250313563, Compound 944027] | < 100 nM | 100 to 1000 nM
50 | CCC1(c2cccc(-c3cnn(C)c3C)c2)C2=C(CC(C)(C)NC2=O)NC2N=NC(C)=C21 (centres undefined) [US20250313563, Compound 944028] | < 100 nM | 100 to 1000 nM
51 | CCC1(c2cccc(-c3ccnc(C(C)O)c3)c2)C2=CN=NC2NC2=C1C(=O)CC(C)(C)C2 (centres undefined) [US20250313563, Compound 944029] | < 100 nM | 100 to 1000 nM
52 | CCC1(c2cccc(-c3cn(C)nc3C)c2)C2=CN=NC2NC2=C1C(=O)NC(C)(C)C2 (centres undefined) [US20250313563, Compound 944030] | < 100 nM | < 100 nM
